≈ marks a conversion by molar mass, not a printed value. Read-outs that look alike come from different tables or passages of the source. Marks after values point to notes of the source that are not given here.
Key:
[1] = test system: Caco-2; experiment: MTS cytotoxicity assay, Caco-2; assay type: cell-based; conditions: Homo sapiens, 24 h, read-out: IC50 against Caco-2
Experimental: (§1) The liver (Hep3B), breast (MCF-7), Human cervical (HeLa), and Colon (CACO-2) tumor cell lines were cultivated separately in RPMI-1640 media (Sigma, Norwich, UK), which was treated with 1% L-glutamine (Sigma, London, UK), 1% penicillin/streptomycin antibiotics (BI, New Delhi, India), and 10% fetal bovine serum. Cancer cells were grown at 37 °C in a humidified atmosphere with 5% CO2. Cells were seeded at 2.6 × 10^4 cells/well in a 96-well plate. […] Cell viability was evaluated by the CellTilter 96® Aqueous One Solution Cell Proliferation (MTS) Assay according to the manufacturer’s directions (Promega Corporation, Madison, WI, USA). At the end of the treatment, 20 μL of MTS solution per 100 μL of media was added to each well, and the solutions in the well plates were incubated at 37 °C for 2 h. The absorbance was measured at 490 nm.

[2] = test system: HepG2; experiment: MTS cytotoxicity assay, HepG2; assay type: cell-based; conditions: Homo sapiens, 24 h, text names Hep3B, read-out: IC50 against HepG2
[3] = test system: HeLa; experiment: MTS cytotoxicity assay, HeLa; assay type: cell-based; conditions: Homo sapiens, 24 h, read-out: IC50 against HeLa
Experimental: as §1

[4] = test system: P. vulgaris; experiment: Broth microdilution MIC, P. vulgaris; assay type: cell-based, Proteus vulgaris (ATCC 8427)
Experimental: (§2) The antibacterial effect of (AJ) EO was determined utilizing several strains of bacteria, which were obtained from the American Type Culture Collection (ATCC): Pseudomonas aeruginosa (ATCC 9027), Escherichia coli (ATCC 25922), Klebsiella pneumonia (ATCC 13883), Proteus vulgaris (ATCC 8427), and Staphylococcus aureus (ATCC 25923), and from a diagnostically confirmed methicillin-resistant Staphylococcus aureus (MRSA). The antifungal activity of (AJ) EO was evaluated against the growth of Candida albicans (ATCC 90028). The antimicrobial activity of the (AJ) EO used in this study was estimated using the broth microdilution method. The (AJ) EO was dissolved in DMSO to a concentration of 200 µg/mL. The produced solution was serially micro-diluted (2-fold) 10 times in sterile Mueller–Hinton broth (Thermo Fisher Scientific, Waltham, MA, USA). The dilution processes were performed under aseptic conditions in 96-well plates. In the micro-wells that were assigned to evaluate the antibacterial activity of (AJ) EO, micro-well number 11 contained plant-free Mueller–Hinton broth, which was used as a positive control for microbial growth. Micro-well number 12 contained plant-free and microbial-free Mueller–Hinton broth, which was used as a negative control for microbial growth. Micro-wells numbered 1–11 were inoculated aseptically with the test microbes. The (AJ) EO antimicrobial activity was determined in triplicate. All the inoculated plates were incubated at 35 °C. Regarding C. albicans, the same method was used but using RPMI media (Thermo Fisher Scientific, Waltham, MA, USA) instead of Mueller–Hinton broth. The incubation period lasted for about 18–24 h for those plates inoculated with the test bacterial strains and for about 48 h for those plates inoculated with C. albicans. […]

[5] = test system: K. pneumoniae; experiment: Broth microdilution MIC, K. pneumoniae; assay type: cell-based, Klebsiella pneumonia (ATCC 13883); conditions: Klebsiella pneumoniae
Experimental: (§3) The antimicrobial activity of the (AJ) EO used in this study was estimated using the broth microdilution method. The (AJ) EO was dissolved in DMSO to a concentration of 200 µg/mL. The produced solution was serially micro-diluted (2-fold) 10 times in sterile Mueller–Hinton broth (Thermo Fisher Scientific, Waltham, MA, USA). The dilution processes were performed under aseptic conditions in 96-well plates. In the micro-wells that were assigned to evaluate the antibacterial activity of (AJ) EO, micro-well number 11 contained plant-free Mueller–Hinton broth, which was used as a positive control for microbial growth. Micro-well number 12 contained plant-free and microbial-free Mueller–Hinton broth, which was used as a negative control for microbial growth. Micro-wells numbered 1–11 were inoculated aseptically with the test microbes. The (AJ) EO antimicrobial activity was determined in triplicate. All the inoculated plates were incubated at 35 °C. Regarding C. albicans, the same method was used but using RPMI media (Thermo Fisher Scientific, Waltham, MA, USA) instead of Mueller–Hinton broth. The incubation period lasted for about 18–24 h for those plates inoculated with the test bacterial strains and for about 48 h for those plates inoculated with C. albicans.

[6] = test system: P. aeruginosa; experiment: Broth microdilution MIC, P. aeruginosa; assay type: cell-based, Pseudomonas aeruginosa (ATCC 9027); set-up: key: R: Resistant
Experimental: as §2, with “Micro-wells numbered 1–11 were inoculated aseptically with the test microbes.” left out, “triplicate.” for “triplicate. All the inoculated plates were incubated at 35 °C. Regarding C. albicans, the same method was used but using RPMI media (Thermo Fisher Scientific, Waltham, MA, USA) instead of Mueller–Hinton broth. The incubation period lasted for about 18–24 h for those plates inoculated with the test bacterial strains and for about 48 h for those plates inoculated with C. albicans.”

[7] = test system: MRSA; experiment: Broth microdilution MIC, MRSA; assay type: cell-based, methicillin-resistant Staphylococcus aureus; set-up: key: R: Resistant
Experimental: as §3

[8] = DPPH free radical scavenging assay; conditions: 30 min, 517 nm
Experimental: One hundred mg of (AJ) EO was dissolved in 100 mL of methanol to create the stock solution (1 mg/mL). The obtained solution was mixed with methanol to obtain different concentrations (2, 3, 5, 7, 10, 20, 30, 40, 50, 80, and 100 μg/mL). One milliliter of stock solution and 1 mL of methanol were mixed with 1 mL of DPPH (Sigma-Aldrich, Steinheim, Germany). Then, the solution was kept in the dark at room temperature for 30 min. However, by replacing the plant EO solution with methanol, the blank solution was prepared. Trolox (Sigma-Aldrich, St. Louis, MO, USA) was utilized as a positive control, and the absorbance for all obtained samples was measured by spectrophotometer (Shimadzu-UV-1800, Kyoto, Japan) at 517 nm. The DPPH inhibitory potentials were estimated utilizing the following formula:I (%) = [ABSblank − ABStest]/[ABSblank]) × 100%(2) where I (%) is the percentage of DPPH inhibitory potentials.

[9] = target: T1, human recombinant COX-2 (Homo sapiens, UniProt P35354); experiment: COX inhibitor screening assay kit, COX-2; assay type: biochemical; conditions: calculated from two concentrations (350 and 50 µg/mL); read-out: IC50 COX-2
T1 construct: purchased Cayman Chemical 560131
T1 sequence (P35354 18-604): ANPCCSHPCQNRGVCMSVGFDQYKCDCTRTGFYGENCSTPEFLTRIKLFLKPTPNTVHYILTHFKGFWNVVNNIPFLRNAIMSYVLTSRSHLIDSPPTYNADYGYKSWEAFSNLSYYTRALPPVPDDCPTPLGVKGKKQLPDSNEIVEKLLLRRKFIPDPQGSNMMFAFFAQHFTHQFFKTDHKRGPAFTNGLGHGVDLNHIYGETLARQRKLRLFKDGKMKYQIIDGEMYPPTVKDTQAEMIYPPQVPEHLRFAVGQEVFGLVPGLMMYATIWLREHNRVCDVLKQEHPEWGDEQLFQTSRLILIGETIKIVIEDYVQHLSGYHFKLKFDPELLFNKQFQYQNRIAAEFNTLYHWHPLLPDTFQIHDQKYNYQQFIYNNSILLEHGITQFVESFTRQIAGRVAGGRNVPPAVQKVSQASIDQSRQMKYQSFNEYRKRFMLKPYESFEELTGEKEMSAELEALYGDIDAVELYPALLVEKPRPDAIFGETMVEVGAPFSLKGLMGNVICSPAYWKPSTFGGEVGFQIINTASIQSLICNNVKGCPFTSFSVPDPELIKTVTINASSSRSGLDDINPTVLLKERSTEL
Excerpt: The percentage inhibition of the two concentrations was used to calculate the IC50 [69, 70].

[10] = target: T2, bovine COX-1 (Ovis aries, UniProt P05979); experiment: COX inhibitor screening assay kit, COX-1; assay type: biochemical; conditions: calculated from two concentrations (350 and 50 µg/mL); read-out: IC50 COX-1
T2 construct: purchased Cayman Chemical 560131
T2 sequence (P05979 25-600): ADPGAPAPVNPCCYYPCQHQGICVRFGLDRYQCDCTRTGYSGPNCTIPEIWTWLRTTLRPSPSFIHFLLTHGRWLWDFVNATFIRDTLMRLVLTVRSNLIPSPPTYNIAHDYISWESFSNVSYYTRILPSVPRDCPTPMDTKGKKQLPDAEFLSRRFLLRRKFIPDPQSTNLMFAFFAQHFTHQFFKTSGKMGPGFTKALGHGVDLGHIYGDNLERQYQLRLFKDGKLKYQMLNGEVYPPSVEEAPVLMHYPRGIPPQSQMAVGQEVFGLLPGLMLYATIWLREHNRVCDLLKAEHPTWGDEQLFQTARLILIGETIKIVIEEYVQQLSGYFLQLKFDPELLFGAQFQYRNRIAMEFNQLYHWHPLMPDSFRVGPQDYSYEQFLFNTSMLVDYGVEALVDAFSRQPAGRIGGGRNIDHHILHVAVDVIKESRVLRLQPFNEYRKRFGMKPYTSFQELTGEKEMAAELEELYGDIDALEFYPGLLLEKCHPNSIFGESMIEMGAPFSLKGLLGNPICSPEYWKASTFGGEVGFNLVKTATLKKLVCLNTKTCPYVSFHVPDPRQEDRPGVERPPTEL
Experimental: The ability of the (AJ) EO to prevent the conversion of arachidonic acid to PGH2 by bovine COX-1 and human recombinant COX-2 was assessed using a COX inhibitor screening assay kit (Item No: 560131, Cayman Chemical, Ann Arbor, MI, USA) according to manufacturer’s guidelines. The 50% inhibitory concentration (IC50) of COX-1/COX-2 activity of the tested samples was determined, with the assay run, in duplicate, with two concentrations (350 and 50 µg/mL). A standard curve of eight concentrations of prostaglandin, a non-specific binding sample, and a maximum binding sample was used, as instructed in the kit manual, to determine the inhibition of the sample plant, applying the generated multiple regression best-fit line. The percentage inhibition of the two concentrations was used to calculate the IC50 [69, 70].

[11] = Proteus vulgaris, read-out: MIC

Compound `COc1cccc2c1C(=O)c1c(O)c3c(c(O)c1C2=O)C[C@@](O)(C(=O)CO)C[C@@H]3O[C@H]1C[C@H](N)[C@H](O)[C@H](C)O1` [doxorubicin] has an IC50 [1] of 0.37 ± 0.08 µg/mL (≈ 0.681 µM), an IC50 [2] of 1.21 ± 0.05 µg/mL (≈ 2.23 µM) and an IC50 [3] of 0.84 ± 0.03 µg/mL (≈ 1.55 µM).

With `O=C(O)c1cn(C2CC2)c2cc(N3CCNCC3)c(F)cc2c1=O` [Ciprofloxacin, ciprofloxacin] the MIC [4] was 15 µg/mL (≈ 45.3 µM) and the MIC [4, 11] was 15 µg/mL (≈ 45.3 µM).

For `CC1(C)S[C@@H]2[C@H](NC(=O)[C@H](N)c3ccccc3)C(=O)N2[C@H]1C(=O)O` [Ampicillin, ampicillin], the MIC [5] was 1 µg/mL (≈ 2.86 µM), the MIC [6] was “R” and the MIC [4, 11] was 18 µg/mL (≈ 51.5 µM). For the same compound, the MIC [7] was “R” and the MIC ([7]; listed as ampicillin) was “does not have antibacterial activity”.

For `Cc1c(C)c2c(c(C)c1O)CCC(C)(C(=O)O)O2` (stereo not shown) [Trolox], the “IC50 against DPPH” value [8] was 1.58 ± 1.49 ^a µg/mL.

`CC(C(=O)O)c1cccc(C(=O)c2ccccc2)c1` (stereo not shown) [Ketoprofen] showed a potency estimated from few doses [9] of 40.2 ± 1.09 µg/mL (≈ 158 µM) and a potency estimated from few doses [10] of 7.89 ± 0.96 µg/mL (≈ 31 µM).
